Experimental data published in ChEMBL document CHEMBL6087425, “Synthesis and evaluation of anti-Giardia activity of oseltamivir analogs” (Bioorg Med Chem Lett, 2025).
pIC50: −log10 of the molar value.

Columns and labels:
[1] = tested on: Giardia intestinalis; assay: Anti-parasitic activity against Giardia intestinalis assemblage A ATCC 30957 trophozoites assessed as inhibition of cyst production incubated for 24 hrs; format: functional, organism-based; settings: Giardia duodenalis, assemblage A ATCC 30957, 24 h
[2] = tested on: Giardia intestinalis; assay: Anti-parasitic activity against Giardia intestinalis assemblage A ATCC 30957 trophozoites assessed as inhibition of parasite growth incubated for 24 hrs; format: functional, organism-based; settings: Giardia duodenalis, assemblage A ATCC 30957, 24 h

Row | SMILES | pIC50 [1] | pIC50 [2]
1 | CCC(CC)O[C@@H]1CC(C(=O)O)=C[C@H](N)[C@H]1NC(C)=O | 4.38 | 4.31
2 | CCC(CC)O[C@@H]1CC(C(=O)O)=C[C@H](N=[N+]=[N-])[C@H]1NC(C)=O | 4.30 | 4.52
3 | CCCC(=O)N[C@@H]1[C@@H](N=[N+]=[N-])C=C(C(=O)O)C[C@H]1OC(CC)CC | 4.34 | 4.29
4 | CCC(CC)O[C@@H]1CC(C(=O)O)=C[C@H](NC(C)=O)[C@H]1NC(C)=O | 4.39 | 4.40
5 | CCOC(=O)C1=C[C@H](NC(=O)CF)[C@@H](NC(C)=O)[C@H](OC(CC)CC)C1 | 4.39 | 4.27
6 | Cc1ncc([N+](=O)[O-])n1CCO [METRONIDAZOLE] | 5.40 | 5.40
7 | CCOC(=O)C1=C[C@@H](OC(CC)CC)[C@H](NC(C)=O)[C@@H](N)C1 [OSELTAMIVIR] | 4.34 | < 3.92
